Reference: patent US20150315188A1, “COMPOUNDS AND METHODS FOR TREATMENT OF HYPERTENSION” (MEDIVATION TECHNOLOGIES, INC., priority 2012, published 2015)

Experiments:
Parameters in all cases: purchased Milipore (Millipore)
[1] = biological target: T1, Human adrenergic α1B receptor (Homo sapiens, UniProt P35368); experiment: Radioligand binding, adrenergic α1B (Protocol Group B); settings: Protocol Group B; for Percentage inhibition of ligand binding, Adrenergic α1B (0.3 μM) / inhibition at 0.3 µM: 0.3 μM compound; for inhibition at 0.3 µM: read-out: Percentage inhibition of ligand binding, Adrenergic α1B (0.3 μM)
T1 sequence (P35368 1-520): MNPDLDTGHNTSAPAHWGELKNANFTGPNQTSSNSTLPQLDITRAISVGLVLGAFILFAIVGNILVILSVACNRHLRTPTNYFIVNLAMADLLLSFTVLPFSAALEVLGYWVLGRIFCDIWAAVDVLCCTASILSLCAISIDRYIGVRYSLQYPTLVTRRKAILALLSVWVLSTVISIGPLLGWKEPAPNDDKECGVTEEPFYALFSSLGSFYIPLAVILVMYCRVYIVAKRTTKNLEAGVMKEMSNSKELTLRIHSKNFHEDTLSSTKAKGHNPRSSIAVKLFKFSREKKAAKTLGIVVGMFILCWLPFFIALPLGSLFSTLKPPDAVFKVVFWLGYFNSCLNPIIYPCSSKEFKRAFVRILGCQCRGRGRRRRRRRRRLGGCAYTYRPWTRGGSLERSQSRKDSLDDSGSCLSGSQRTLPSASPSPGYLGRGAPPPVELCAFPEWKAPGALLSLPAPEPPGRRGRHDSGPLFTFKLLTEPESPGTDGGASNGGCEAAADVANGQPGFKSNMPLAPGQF
In short: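 Recombinant human α1B membranes incubated with test compound and 0.3 nM [3H]prazosin, 60 min at 25 °C, in 50 mM Tris-HCl pH 7.4, 10 mM MgCl2, 1 mM EDTA; nonspecific binding with 10 μM prazosin. Filter-bound radioactivity counted; values are % inhibition of specific binding or estimated Ki.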

[2] = biological target: T2, Human adrenergic α2A receptor (Homo sapiens, UniProt P08913); experiment: Radioligand binding, adrenergic α2A (Protocol Group B); settings: Protocol Group B; for Percentage inhibition of ligand binding, Adrenergic α2A (0.3 μM): 0.3 μM compound
T2 sequence (P08913 1-465): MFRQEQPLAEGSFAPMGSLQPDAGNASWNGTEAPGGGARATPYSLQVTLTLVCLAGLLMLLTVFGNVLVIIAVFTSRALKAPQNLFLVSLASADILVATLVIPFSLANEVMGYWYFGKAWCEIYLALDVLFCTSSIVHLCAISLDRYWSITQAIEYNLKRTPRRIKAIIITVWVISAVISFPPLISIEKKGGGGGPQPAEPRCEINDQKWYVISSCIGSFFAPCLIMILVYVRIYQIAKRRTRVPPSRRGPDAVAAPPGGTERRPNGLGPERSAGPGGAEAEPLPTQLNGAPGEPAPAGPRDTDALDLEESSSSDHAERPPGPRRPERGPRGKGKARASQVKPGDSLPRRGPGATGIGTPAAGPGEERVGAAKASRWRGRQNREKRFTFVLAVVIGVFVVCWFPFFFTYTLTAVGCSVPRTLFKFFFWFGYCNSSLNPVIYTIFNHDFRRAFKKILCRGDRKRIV
In short: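 Membranes from recombinant cells expressing the receptor, in 50 mM Tris-HCl pH 7.4 with 5 mM MgCl2, 1 mM CaCl2, 0.2% BSA; compounds incubated with 2 nM [^3H]MK-912 for 60 min at 25° C. Nonspecific binding defined by 10 μM rauwolscine; filtration, counting; percent inhibition of specific binding, or estimated Ki.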

[3] = biological target: T3, Human adrenergic α2B receptor (Homo sapiens, UniProt P18089); experiment: Radioligand binding, adrenergic α2B (Protocol Group B); settings: Protocol Group B; for Percentage inhibition of ligand binding, Adrenergic α2B (10 nM): 0.01 µM; for Percentage inhibition of ligand binding, Adrenergic α2B (30 nM): 0.03 µM; for Percentage inhibition of ligand binding, Adrenergic α2B (0.1 μM): 0.1 μM compound
T3 sequence (P18089 1-450): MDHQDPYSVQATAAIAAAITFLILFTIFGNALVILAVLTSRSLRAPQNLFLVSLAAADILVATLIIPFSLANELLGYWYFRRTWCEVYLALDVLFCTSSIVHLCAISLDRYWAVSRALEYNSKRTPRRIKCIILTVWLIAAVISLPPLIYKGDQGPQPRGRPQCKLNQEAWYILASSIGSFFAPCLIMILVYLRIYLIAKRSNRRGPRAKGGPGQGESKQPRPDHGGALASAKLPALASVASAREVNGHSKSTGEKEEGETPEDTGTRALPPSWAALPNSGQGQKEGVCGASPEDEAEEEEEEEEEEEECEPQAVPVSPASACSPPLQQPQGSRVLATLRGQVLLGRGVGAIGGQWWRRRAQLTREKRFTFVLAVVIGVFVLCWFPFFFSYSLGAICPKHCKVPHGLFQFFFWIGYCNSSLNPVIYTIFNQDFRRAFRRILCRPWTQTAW
In short: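 Recombinant human α2B receptor membranes incubated with compounds in 50 mM Tris-HCl pH 7.4, 5 mM MgCl2, 1 mM CaCl2, 0.2% BSA, 1% DMSO vehicle. Non-specific binding defined with 10 μM rauwolscine. Values are percent inhibition of specific binding or estimated Ki.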

Row | SMILES | Percentage inhibition of ligand binding, Adrenergic α1B (0.1 μM) ([1]; 0.1 μM compound) | Percentage inhibition of ligand binding, Adrenergic α1B (0.3 μM) [1] | Percentage inhibition of ligand binding, Adrenergic α2A (0.1 μM) ([2]; 0.1 μM compound) | Percentage inhibition of ligand binding, Adrenergic α2A (0.3 μM) [2] | Percentage inhibition of ligand binding, Adrenergic α2B (10 nM) ([3]; 10 nM compound) | Percentage inhibition of ligand binding, Adrenergic α2B (30 nM) ([3]; 30 nM compound) | Percentage inhibition of ligand binding, Adrenergic α2B (0.1 μM) [3] | inhibition at 0.3 µM [1] | inhibition at 0.03 µM ([3]; 30 nM compound, read-out: Percentage inhibition of ligand binding, Adrenergic α2B (30 nM)) | inhibition at 0.1 µM ([1]; 0.1 μM compound, read-out: Percentage inhibition of ligand binding, Adrenergic α1B (0.1 μM)) | inhibition at 0.1 µM ([2]; 0.1 μM compound, read-out: Percentage inhibition of ligand binding, Adrenergic α2A (0.1 μM)) | inhibition at 0.01 µM ([3]; 10 nM compound, read-out: Percentage inhibition of ligand binding, Adrenergic α2B (10 nM))
1 | Cc1ccc2c(c1)c1c(n2CC(C)(O)c2cccnc2)CC2CCC1N2C (single isomer, unassigned) [101d] | 4% | 8% | −10% | 3% | −2% | −3% | 9% | – | – | – | – | –
2 | Cc1ccc2c(c1)c1c(n2CC(C)(O)c2ccc(F)cc2)CC2CCC1N2C (single isomer, unassigned) [102a] | 5% | 22% | −8% | 5% | 2% | 13% | 38% | – | – | – | – | –
3 | Cc1ccc2c(c1)c1c(n2CC(C)(O)c2ccc(F)cc2)CC2CCC1N2C (single isomer, unassigned) [102c] | −4% | 5% | −12% | −5% | −14% | −5% | −8% | – | – | – | – | –
4 | Cc1ccc2c(c1)c1c(n2CC(C)(O)c2ccc(F)cc2)CC2CCC1N2C (single isomer, unassigned) [102d] | −1% | −5% | −8% | 4% | −8% | 6% | −8% | – | – | – | – | –
5 | Cc1ccc2c(c1)c1c(n2CC(C)(O)c2ccc(F)cc2)CN2CCC1C2 (single isomer, unassigned) [134a] | −6% | – | −5% | – | – | −8% | – | – | – | – | – | –
6 | Cc1ccc2c(c1)c1c(n2CC(C)(O)c2ccc(F)cc2)CN2CCC1C2 (single isomer, unassigned) [134b] | 29% | – | 7% | – | – | 40% | – | – | – | – | – | –
7 | Cc1ccc2c(c1)c1c(n2CC(C)(O)c2ccc(F)cc2)CN2CCC1C2 (single isomer, unassigned) [134c] | 8% | – | 4% | – | – | 8% | – | – | – | – | – | –
8 | Cc1ccc2c(c1)c1c(n2CC(C)(O)c2ccc(F)cc2)CN2CCC1C2 (single isomer, unassigned) [134d] | 28% | – | 15% | – | – | 22% | – | – | – | – | – | –
9 | OC(Cn1c2c(c3cc(Cl)cc(F)c31)C1CCCN1CC2)c1ccncc1 (single isomer, unassigned) [135c] | 1% | – | 12% | 18% | 4% | – | – | 12% | 10% | – | – | –
10 | OC(Cn1c2c(c3cc(Cl)cc(F)c31)C1CCCN1CC2)c1ccncc1 (single isomer, unassigned) [135d] | −7% | 9% | 0% | 2% | −1% | 8% | – | – | – | – | – | –
11 | Cc1cc(F)cc2c3c(n(CC(O)c4ccncc4)c12)CCN1CCCC31 (single isomer, unassigned) [136c] | 0% | – | 3% | – | – | 9% | – | – | – | – | – | –
12 | Cc1cc(F)cc2c3c(n(CC(O)c4ccncc4)c12)CCN1CCCC31 (single isomer, unassigned) [136d] | −2% | – | −12% | – | – | −8% | – | – | – | – | – | –
13 | Cc1cc(F)c2c(c1)c1c(n2CC(O)c2ccncc2)CCN2CCCC12 (single isomer, unassigned) [137c] | – | – | – | 2% | – | 10% | – | 14% | – | 12% | 10% | 14%
14 | Cc1cc(F)c2c(c1)c1c(n2CC(O)c2ccncc2)CCN2CCCC12 (single isomer, unassigned) [137d] | 19% | 18% | 15% | 16% | 21% | 24% | – | – | – | – | – | –
15 | Cc1ccc2c(c1)c1c(n2CC(OCC2CCC2)c2ccncc2)CCN2CCCC12 (single isomer, unassigned) [138c] | 4% | – | 0% | – | – | −9% | – | – | – | – | – | –
